Laboratory results reported in BigSolDB 2.1.

C[C@@H]1CC[C@@]2(OC1)O[C@H]1C[C@H]3[C@@H]4CC=C5C[C@@H](O)CC[C@]5(C)[C@H]4CC[C@]3(C)[C@H]1[C@@H]2C
solubility (mole fraction)
Settings | in n-heptanol | in n-hexanol
300.15 K | – | 0.00806
302.26 K | 0.0088 | –
303.35 K | – | 0.00875
305.45 K | 0.00959 | 0.00905
307.65 K | 0.0101 | –
308.15 K | – | 0.00957
309.9 K | 0.0106 | 0.0101
312.12 K | 0.0112 | 0.0107
312.46 K | 0.0119 | 0.0113
313.79 K | – | 0.0119
314.11 K | 0.0126 | –
315.8 K | 0.0133 | 0.0126
317.35 K | – | 0.0132
317.75 K | 0.014 | –
319.26 K | – | 0.0139
320.05 K | 0.0147 | –
320.77 K | – | 0.0147
321.07 K | 0.0155 | –
321.95 K | – | 0.0154
323.22 K | 0.0163 | –
323.95 K | – | 0.0161
324.65 K | 0.0171 | –
325.05 K | – | 0.0167
325.35 K | 0.0179 | –
326.2 K | – | 0.0174
327.45 K | 0.0188 | –
327.95 K | – | 0.0181
328.51 K | 0.0196 | –
329.6 K | 0.0202 | 0.0188
